Assay results as given in publication PMC7961786, “Magic Peptide: Unique Properties of the LRR11 Peptide in the Activation of Leukotriene Synthesis in Human Neutrophils” (International Journal of Molecular Sciences, 2021).
“Also recorded” adds a separate entry of the source.

Experiments:
[1] = system: 5′-biotinylated G-rich ODN; test: TSM acoustic biosensor, peptide binding to immobilized G-rich ODN; details: LRR11 1 to 100 nM, Hanks buffer
From the text: (§1) To characterize the interaction of the studied synthetic ODNs with the LRR11 peptide, we applied the thickness shear mode (TSM) acoustic biosensor method, which is based on the investigation of ultrasonic waves in piezoelectric materials such as AT-cut quartz. This approach involved immobilizing a 5′-biotinylated ODN on the surface of TSM transducer covered by NeutrAvidin and then adding the LRR11 peptide. An unrelated peptide (URP) with a random primary structure ([…]) was used as a negative control. The measurement procedure was divided into several steps, in which each immobilization stage was followed by washing with an appropriate buffer solution; when peptide solutions at different concentrations (from 1 to 100 nM) were added to the surface-modified TSM transducer, a wash with Hanks buffer was used before increasing the peptide concentration.
Eight MHz AT-cut piezoelectric quartz crystal transducer was obtained from CH Instruments, Austin, TX, USA. The transducer was covered on both sides with thin layers of gold that served as electrodes (working area 0.2 cm^2). Prior ODNs immobilization, the crystal was carefully cleaned with basic Piranha solution (29% NH3, 30% H2O and H2O2 with volumetric 1:5:1 ratio, respectively) for 25 min. After the thorough cleaning, the crystal was positioned between two silicon O-rings in a flow-through cell. […]

[2] = system: human neutrophils (PMNLs); test: Binding and uptake of FAM-labeled ODNs by neutrophils (flow cytometry); type: cell-based; details: 1 µM LRR11, 0.15 µM FPS-ZM1; n = 3; Figure 7
Experimental: Figure 6 The LRR11 peptide affects the binding and uptake of ODNs by neutrophilic granulocytes. PMNLs (1 × 10^6/mL) in HBSS/HEPES were incubated for 20 min at 37 °C in 5% CO2 with 1 µM FAM-labeled ODN, supplemented or not with 1 µM LRR11 peptide. Both the total ODN accumulation (red) and its intracellular constituent (black) were analyzed by flow cytometry. Surface fluorescence was quenched by trypan blue (TB) solution. Values represent the means ± SEM of FAM fluorescence intensities (RFU, relative fluorescence units) (n = 8). ** p < 0.01; *** p < 0.005, **** p < 0.001 for specified data pairs, as indicated by two-way ANOVA followed by Tukey’s multiple comparison test. Mean fluorescence intensities of unstained PMNLs were 62 ± 12 and 39 ± 5.6 without or after TB quenching, respectively.
Figure 7 RAGE antagonist effect on oligonucleotide penetration into neutrophil cells. […] Both total oligonucleotide accumulation (A) and its intracellular constituent (B) were analyzed by flow cytometry. The surface fluorescence was quenched by trypan blue solution. Values represent the means ± SEM of FAM fluorescence intensities (RFU) (n = 3). * p < 0.05; […]; *** p < 0.005 for the pair of data specified, as indicated by two-way ANOVA followed by Tukey’s multiple comparison test. Fluorescence intensities of unstained controls were 62 ± 14 and 49 ± 6 without, or after TB quenching, respectively. […]

5′-biotinylated B-CpG = test: TSM acoustic biosensor, peptide binding to immobilized B-CpG
From the text: as §1
Based on Langmuir isotherm Equation (1), (1) Δfcc=Δfsmaxc/KD+c where Δfs(c) is the frequency change at a certain peptide concentration under equilibrium conditions, (Δfs)max is the maximum frequency change, c is the peptide concentration, and KD is the equilibrium constant of dissociation, we estimated the (Δfs)max and KD values for binding of the LRR11 peptide to C-CpG and B-CpG (Table 3).
Eight MHz AT-cut piezoelectric quartz crystal transducer was obtained from CH Instruments, Austin, TX, USA. The transducer was covered on both sides with thin layers of gold that served as electrodes (working area 0.2 cm^2). Prior ODNs immobilization, the crystal was carefully cleaned with basic Piranha solution (29% NH3, 30% H2O and H2O2 with volumetric 1:5:1 ratio, respectively) for 25 min. After the thorough cleaning, the crystal was positioned between two silicon O-rings in a flow-through cell. The analyte was injected into the cell using a Genie Plus syringe pump (Kent Scientific, Torrington, CT, USA) at a flow rate of 50 μL/min. Each solution was applied until the resonance frequency stabilized. The surface of the transducer was first washed with deionized water, and then 125 μg/mL NeutrAvidin (WWR International GmbH, Vienna, Austria) solution in water was applied. Approximately 15 min were required to stabilize the signal at a constant NeutrAvidin flow rate. This was followed by washing with water to rinse out all non-chemisorbed NeutrAvidin molecules. Immobilization of ODN on the gold surface of the crystals is accomplished using avidin–biotin interactions. A 1 μM 5′-biotinylated ODN solution was injected over the neutravidin-modified surface and subsequently the crystal was washed again with water. The system was then equilibrated using Hanks buffer solution. This buffer was suitable for studying LRR11–ODN binding. Then LRR11 was used at concentrations of 1, 5, 10, 50 and 100 nM […] in Hanks buffer. After each addition of LRR11, the sensor surface was washed with Hanks buffer and LRR11 with the higher concentration was added. All binding experiments were carried out at room temperature. Buffer and sample solutions were introduced in a flow-through format. A network analyzer 8712ES (Agilent Technologies, Santa Clara, CA, USA) was used to measure the impedance properties of the sensor and determine fS and Rm.

## QLRKLNLSFNYQKRVSFAHLSLAPSFGSLV [LRR11, 30 amino acid peptide from leucine-rich repeat of TLR9]
[1]
  interaction with G-rich ODN: does not interact with the LRR11 peptide at any concentration; also recorded: no significant change of resonant frequency was observed
[2]
  effect of LRR11 on FPS-ZM1 inhibition of ODN internalization: overcomes the inhibitory effect of FPS-ZM1; also recorded: the maximum ODN delivery into cells is observed in the presence of LRR11 and a RAGE antagonist
5′-biotinylated B-CpG; 1, 5, 10 nM LRR11, B-CpG
  change of ∆fs at low LRR11 concentrations: not significant or small changes of ∆fs
5′-biotinylated B-CpG; LRR11-B-CpG complex, Langmuir fit, Hanks buffer, room temperature, LRR11 1-100 nM, three independent experiments
  Kd: 55.1 ± 17.4 nM
